Measured values: US8084453B2, “Alkyl substituted indoloquinoxalines” (Oxypharma AB, priority 2004, dated 2011)

Experiments:
[1] = system: mAB/LPS-induced arthritic mice; assay: mAb/LPS-induced arthritis in mice, hind paw thickness; type: in vivo; details: for Mean group values of hind paw thickness, day 0: day 0 (base-line); for Mean group values of hind paw thickness, day 0 / Mean group values of hind paw thickness, day 7 / Mean group values of hind paw thickness, day 9 / Mean group values of hind paw thickness, day 11: once daily (day 0-5) repeated subcutaneous administration; for Hind paw thickness vs vehicle control (corn oil): comparison with vehicle control (corn oil)
Source text: Collagen-induced arthritis (CIA) in mice is widely used as an experimental model for rheumatoid arthritis (RA) in humans. CIA is mediated by autoantibodies which bind to a particular region of type II collagen, such as CB11 (CNBr-digested fragment of type II collagen).
Antibody-mediated CIA can be induced by iv injection of a combination of 4 different monoclonal antibodies (Arthrogen-CIA® mAb) generated by Arthrogen-CIA® mouse B-hybridoma cell lines.
Three of the mAbs recognize autoantigenic epitopes clustered within an 84 amino acid residue fragment, LyC2 (the smallest arthritogenic fragment of type II collagen) of CB11 and the fourth mAb reacts with LyC1 (FIG. 1). Importantly, all 4 mAbs recognize the conserved epitopes shared by various species of type II collagen and crossreact with homologous and heterologous type II collagen.
A cocktail of 4 monoclonal antibodies are used. These arthritogenic mAbs alone or in combination with bacterial LPS can induce severe arthritis within days instead of weeks (classic CIA model).
(A) A cocktail of 4 monoclonal antibodies to type II collagen (2 mg) is injected intravenously on day 0 followed by an intraperitoneal injection of LPS (50 μg) on day 3. Arthritis will develop on day 4 and reach its peak on day 7-8. The therapeutic effects of test compounds will be determined on day 7. […] formation and bone degradation will be more significant on day 14 and day 21 (not shown). (B) Authentic collagen-induced arthritis.
Measurement of arthritis. Hind paw thickness, left and right of each animal (9 animals in each group) was measured in mm on study days 0 (base-line), 7, 9 and 11 using a Mitutoyo Electronic Digital Caliper. […] Dexamethasone is a cortisone which suppresses inflammation and normal immune response, and is used systemically and locally to treat inflammatory disorders. Patients are for safety reasons treated with short courses of cortisones to bring the inflammation under control in the window between starting the DMARD or DMARD combination and the likely response time.
FIG. 3. Mean group values (mm) of hind paw thickness measured throughout the entire 11-day observation period in the mAB/LPS-induced arthritic mice following once daily (day 0-5) repeated subcutaneous administration of B-220 analogues, Dexamethasone (positive control) or corn oil (negative control).

EAE model = details: prior art patents; cited from earlier work
[2] = system: collagen-induced arthritis (CIA) model; details: prior art patents; cited from earlier work

Cc1cc2nc3c4ccccc4n(CCN(C)C)c3nc2cc1C [Compound B-220, 2,3-dimethyl-6-(N,N-dimethylaminoethyl)-6H-indolo(2,3-b)quinoxaline, reference compound]
Mean group values of hind paw thickness, day 0 [1]: 2.2 mm
Mean group values of hind paw thickness, day 7 [1]: 3.1 mm
Mean group values of hind paw thickness, day 9 [1]: 3.0 mm
Mean group values of hind paw thickness, day 11 [1]: 2.8 mm
treating MS in the EAE model (EAE model): promising compound
treating RA in the collagen-induced arthritis (CIA) model [2]: promising compound

Cc1cc2nc3c4cc(F)ccc4n(CC(N)=O)c3nc2cc1C [Compound C, 2,3-Dimethyl-9-fluoro-indolo[2,3-b]quinoxaline-6-yl-acetamide]
Mean group values of hind paw thickness, day 0 [1]: 2.2 mm
Mean group values of hind paw thickness, day 7 [1]: 3.1 mm
Mean group values of hind paw thickness, day 9 [1]: 3.0 mm
Mean group values of hind paw thickness, day 11 [1]: 2.8 mm
melting point: 316 to 319 °C

Cc1cc2nc3c4cc(Cl)ccc4n(CC(=O)NCCN(C)C)c3nc2cc1C [Compound E, 9-Chloro-2,3-dimethyl-6-(N,N-dimethylaminoethylamino-2-oxoethyl)-6H-indolo-[2,3-b]quinoxaline]
Hind paw thickness vs vehicle control (corn oil) [1]: highly significant lower
Mean group values of hind paw thickness, day 0 [1]: 2.2 mm
Mean group values of hind paw thickness, day 7 [1]: 2.3 mm
Mean group values of hind paw thickness, day 9 [1]: 2.3 mm
Mean group values of hind paw thickness, day 11 [1]: 2.3 mm

Cc1cc2nc3c4cc(F)ccc4n(CC(=O)NCCN)c3nc2cc1C [Compound H, 2,3-Dimethyl-6-(aminoethylamino-2-oxoethyl)-9-fluoro-6H-indolo[2,3-b]quinoxaline]
Hind paw thickness vs vehicle control (corn oil) [1]: highly significant lower
Mean group values of hind paw thickness, day 0 [1]: 2.2 mm
Mean group values of hind paw thickness, day 7 [1]: 2.5 mm
Mean group values of hind paw thickness, day 9 [1]: 2.5 mm
Mean group values of hind paw thickness, day 11 [1]: 2.5 mm
melting point: 269 to 271 °C

Cc1cc2nc3c4cc(Cl)ccc4n(CC(=O)O)c3nc2cc1C [Compound K, 2,3-Dimethyl-9-chloro-indolo[2,3-b]quinoxaline-6-yl acetic acid]
melting point: 331 to 332 °C

Cc1cc2nc3c4cc(F)ccc4n(CC(=O)O)c3nc2cc1C [Compound L, 2,3-dimethyl-9-fluoro-indolo[2,3-b]quinoxaline-6-yl-acetic acid]
melting point: 317 to 318 °C

C[C@@H]1C[C@H]2[C@@H]3CCC4=CC(=O)C=C[C@]4(C)[C@@]3(F)[C@@H](O)C[C@]2(C)[C@@]1(O)C(=O)CO [Dexamethasone, reference compound]
Mean group values of hind paw thickness, day 0 [1]: 2.2 mm
Mean group values of hind paw thickness, day 7 [1]: 2.3 mm
Mean group values of hind paw thickness, day 9 [1]: 2.3 mm
Mean group values of hind paw thickness, day 11 [1]: 2.3 mm
